# Measured values: paper PMC6265310, “Purification, Characterization and in vitro Evaluation of Polymyxin A From Paenibacillus dendritiformis: An Underexplored Member of the Polymyxin Family” (Frontiers in Microbiology, 2018)
# Read-outs that look alike come from different tables or passages of the source. Where a SMILES comes first, the peptide text is derived from it. Bridges are numbered along the chain shown (N, C = ends). [ ]: non-standard residue; d: D form. The star is where a group is joined. X1 = CC[C@H](C)CCCCC(=O)*; dDab = NCC[C@@H](N)C(=O)O; Dab = NCC[C@H](N)C(=O)O
# How the values were obtained:
# [1] = tested on: Staphylococcus aureus ATCC 25923; conditions: Staphylococcus aureus ATCC 25923
# [2] = tested on: Escherichia coli ATCC 25922; conditions: Escherichia coli ATCC 25922
# [3] = tested on: Vibrio parahaemolyticus ATCC17802
# [4] = tested on: Klebsiella pneumoniae ATCC- BAA 2146; conditions: Klebsiella pneumoniae ATCC- BAA 2146
# [5] = tested on: Acinetobacter baumannii ATCC 19606; conditions: Acinetobacter baumannii ATCC 19606; Ca-MHB, 37°C, 20–24 h
# [6] = tested on: Klebsiella pneumoniae ATCC 700603; conditions: Klebsiella pneumoniae ATCC 700603
# [7] = tested on: Pseudomonas aeruginosa ATCC 27853; conditions: Pseudomonas aeruginosa ATCC 27853
# [8] = tested on: Enterococcus faecalis ATCC 51299; conditions: Enterococcus faecalis ATCC 51299
# [9] = tested on: human embryonic kidney cell line (HEK293 ATCC CRL-1573); format: cell-based
# Experimental: (§1) 3-(4,5-dimethylthiazol-2-yl)-2,5-diphenyltetrazolium bromide (MTT) assay was employed to examine the cytotoxicity against human leukemic monocyte cell line (THP-1 ATCC TIB-202) and human embryonic kidney cell line (HEK293 ATCC CRL-1573) as explained by [Kaur et al. (2017)]. Toxicity of both compounds was compared with polymyxin B and colistin at concentrations ranging from 62.5 to1000 μg/ml.
# [10] = tested on: human leukemic monocyte cell line (THP-1 ATCC TIB-202); format: cell-based
# Experimental: as §1
# [11] = tested on: Vibrio cholerae MTCC 3906
# [12] = tested on: Bacillus subtilis ATCC 6633; conditions: Bacillus subtilis ATCC 6633
# [13] = tested on: Escherichia coli ATCC 35218; conditions: Escherichia coli ATCC 35218
# [14] = tested on: Klebsiella pneumoniae ATCC BAA1706; conditions: Klebsiella pneumoniae ATCC BAA1706
# [15] = tested on: Klebsiella pneumoniae ATCC 29665; conditions: Klebsiella pneumoniae ATCC 29665
# P. aeruginosa ATCC 27853 = test: Time-kill kinetics; format: cell-based; conditions: P. aeruginosa ATCC 27853, 2xMIC
# [16] = tested on: LPS (E. coli strain 055:B5 origin); format: binding; conditions: read-out: Dissociation constant (Kd)
# [17] = THP-1 cells, MTT, 62.5 to 1000 μg/ml
molecule,measurement,setting,value
"CC[C@H](C)CCCCC(=O)N[C@@H](CCN)C(=O)N[C@H](C(=O)N[C@H](CCN)C(=O)N[C@H]1CCNC(=O)[C@H]([C@@H](C)O)NC(=O)[C@H](CCN)NC(=O)[C@H](CCN)NC(=O)[C@H]([C@@H](C)O)NC(=O)[C@@H](CC(C)C)NC(=O)[C@H](CCN)NC1=O)[C@@H](C)O [P2, polymyxin A1] (X1-[Dab]T[dDab][Dab][Dab][dL]T[Dab][Dab]T; lactam 4-C)",MIC,[1],>16 µg/mL
same,MIC,P. aeruginosa PA3; PA3,2 µg/mL
same,MIC,P. aeruginosa PA5; PA5,2 µg/mL
same,MIC,K. Pneumoniae GMCH11; GMCH11,1 µg/mL
same,MIC,[2],1 µg/mL
same,MIC,P. aeruginosa GMCH06; GMCH06,1 µg/mL
same,MIC,[3],1 µg/mL
same,MIC,[4],1 µg/mL
same,MIC,P. aeruginosa PA4; PA4,1 µg/mL
same,MIC,K. Pneumoniae GMCH12; GMCH12,1 µg/mL
same,MIC,[5],1 µg/mL
same,MIC,E. coli 14363; 14363,0.5 µg/mL
same,MIC,E. coli 7932; 7932,1 µg/mL
same,MIC,[6],1 µg/mL
same,MIC,[7],1 µg/mL
same,MIC,A. baumannii AB1; AB1,1 µg/mL
same,MIC,K. Pneumoniae GMCH13; GMCH13,0.5 µg/mL
same,MIC,P. aeruginosa PA2; PA2,2 µg/mL
same,MIC,K. Pneumoniae GMCH10; GMCH10,1 µg/mL
same,MIC,E. coli 9062; 9062,1 µg/mL
same,MIC,A. baumannii GMCH 14; GMCH 14,1 µg/mL
same,MIC,A. baumannii GMCH18; GMCH18,0.5 µg/mL
same,MIC,[8],>16 µg/mL
same,MIC,K. Pneumoniae 1428; 1428,2 µg/mL
same,MIC,K. Pneumoniae 827; 827,1 µg/mL
same,MIC,K. Pneumoniae B8; B8,1 µg/mL
same,MIC,E. coli 3185; 3185,0.5 µg/mL
same,toxicity ranking against HEK cells,[9],highest toxicity among four compounds
same,IC50,[10],500 µg/mL
same,MIC,K. Pneumoniae GMCH 16; GMCH 16,0.5 µg/mL
same,MIC,E. coli 7534; 7534,0.5 µg/mL
same,MIC,K. Pneumoniae GMCH04; GMCH04,0.5 µg/mL
same,MIC,E. coli 13425; 13425,1 µg/mL
same,MIC,E. coli 14084; 14084,0.5 µg/mL
same,MIC,[11],8 µg/mL
same,MIC,A. baumannii GMCH05; GMCH05,1 µg/mL
same,MIC,P. aeruginosa PA1; PA1,2 µg/mL
same,MIC,[12],8 µg/mL
same,MIC,P. aeruginosa PA6; PA6,2 µg/mL
same,MIC,E. coli 14504; 14504,0.5 µg/mL
same,MIC,[13],0.5 µg/mL
same,MIC,[14],1 µg/mL
same,MIC,K. Pneumoniae 1573; 1573,0.5 µg/mL
same,MIC,[15],1 µg/mL
same,MIC,A. baumannii AB2; AB2,1 µg/mL
same,MIC,E. coli 7210; 7210,1 µg/mL
"polymyxin B [PB, reference compound]",MIC,[1],16 µg/mL
same,MIC,P. aeruginosa PA3,2 µg/mL
same,MIC,P. aeruginosa PA5,2 µg/mL
same,MIC,K. Pneumoniae GMCH11,1 µg/mL
same,MIC,[2],1 µg/mL
same,MIC,P. aeruginosa GMCH06,1 µg/mL
same,MIC,[3],1 µg/mL
same,MIC,[4],1 µg/mL
same,MIC,P. aeruginosa PA4,1 µg/mL
same,MIC,K. Pneumoniae GMCH12,1 µg/mL
same,MIC,[5],1 µg/mL
same,MIC,E. coli 14363,0.5 µg/mL
same,MIC,E. coli 7932,1 µg/mL
same,MIC,[6],1 µg/mL
same,MIC,[7],1 µg/mL
same,MIC,A. baumannii AB1,1 µg/mL
same,MIC,K. Pneumoniae GMCH13,1 µg/mL
same,MIC,P. aeruginosa PA2,2 µg/mL
same,MIC,K. Pneumoniae GMCH10,1 µg/mL
same,MIC,E. coli 9062,1 µg/mL
same,MIC,A. baumannii GMCH 14,1 µg/mL
same,MIC,A. baumannii GMCH18,1 µg/mL
same,MIC,[8],>16 µg/mL
same,MIC,K. Pneumoniae 1428,2 µg/mL
same,MIC,K. Pneumoniae 827,1 µg/mL
same,MIC,K. Pneumoniae B8,1 µg/mL
same,MIC,E. coli 3185,0.5 µg/mL
same,IC50,[10]; [17],125 µg/mL
same,MIC,K. Pneumoniae GMCH 16,0.5 µg/mL
same,MIC,E. coli 7534,1 µg/mL
same,MIC,K. Pneumoniae GMCH04,0.5 µg/mL
same,MIC,E. coli 13425,1 µg/mL
same,time to kill,P. aeruginosa ATCC 27853,2 h
same,MIC,E. coli 14084,0.5 µg/mL
same,MIC,[11],8 µg/mL
same,MIC,A. baumannii GMCH05,1 µg/mL
same,MIC,P. aeruginosa PA1,2 µg/mL
same,MIC,[12],4 µg/mL
same,MIC,P. aeruginosa PA6,2 µg/mL
same,MIC,E. coli 14504,1 µg/mL
same,MIC,[13],0.5 µg/mL
same,MIC,[14],1 µg/mL
same,MIC,K. Pneumoniae 1573,1 µg/mL
same,MIC,[15],1 µg/mL
same,MIC,A. baumannii AB2,1 µg/mL
same,Kd,[16],3.39 µM
same,MIC,E. coli 7210,1 µg/mL
"polymyxin E (colistin) [PE, reference compound]",MIC,[1],>16 µg/mL
same,MIC,"P. aeruginosa PA3; P. aeruginosa PA3, MDR clinical isolate",2 µg/mL
same,MIC,"P. aeruginosa PA5; P. aeruginosa PA5, MDR clinical isolate",2 µg/mL
same,MIC,"K. Pneumoniae GMCH11; K. Pneumoniae GMCH11, MDR clinical isolate",0.5 µg/mL
same,MIC,[2],1 µg/mL
same,MIC,"P. aeruginosa GMCH06; P. aeruginosa GMCH06, MDR clinical isolate",1 µg/mL
same,MIC,[3],1 µg/mL
same,MIC,[4],0.5 µg/mL
same,MIC,"P. aeruginosa PA4; P. aeruginosa PA4, MDR clinical isolate",1 µg/mL
same,MIC,"K. Pneumoniae GMCH12; K. Pneumoniae GMCH12, MDR clinical isolate",1 µg/mL
same,MIC,[5],1 µg/mL
same,MIC,"E. coli 14363; E. coli 14363, MDR clinical isolate",0.5 µg/mL
same,MIC,"E. coli 7932; E. coli 7932, MDR clinical isolate",1 µg/mL
same,MIC,[6],1 µg/mL
same,MIC,[7],1 µg/mL
same,MIC,"A. baumannii AB1; A. baumannii AB1, MDR clinical isolate",1 µg/mL
same,MIC,"K. Pneumoniae GMCH13; K. Pneumoniae GMCH13, MDR clinical isolate",1 µg/mL
same,MIC,"P. aeruginosa PA2; P. aeruginosa PA2, MDR clinical isolate",2 µg/mL
same,MIC,"K. Pneumoniae GMCH10; K. Pneumoniae GMCH10, MDR clinical isolate",1 µg/mL
same,MIC,"E. coli 9062; E. coli 9062, MDR clinical isolate",1 µg/mL
same,MIC,"A. baumannii GMCH 14; A. baumannii GMCH 14, MDR clinical isolate",1 µg/mL
same,MIC,"A. baumannii GMCH18; A. baumannii GMCH18, MDR clinical isolate",1 µg/mL
same,MIC,[8],>16 µg/mL
same,MIC,"K. Pneumoniae 1428; K. Pneumoniae 1428, MDR clinical isolate",2 µg/mL
same,MIC,"K. Pneumoniae 827; K. Pneumoniae 827, MDR clinical isolate",1 µg/mL
same,MIC,"K. Pneumoniae B8; K. Pneumoniae B8, MDR clinical isolate",1 µg/mL
same,MIC,"E. coli 3185; E. coli 3185, MDR clinical isolate",0.5 µg/mL
same,IC50,"[9]; HEK293 cells, MTT, 62.5 to 1000 μg/ml",above 1000 μg/ml
same,IC50,[10]; [17],> 250 µg/mL
same,MIC,"K. Pneumoniae GMCH 16; K. Pneumoniae GMCH 16, MDR clinical isolate",1 µg/mL
same,MIC,"E. coli 7534; E. coli 7534, MDR clinical isolate",0.5 µg/mL
same,MIC,"K. Pneumoniae GMCH04; K. Pneumoniae GMCH04, MDR clinical isolate",0.5 µg/mL
same,MIC,"E. coli 13425; E. coli 13425, MDR clinical isolate",1 µg/mL
same,MIC,"E. coli 14084; E. coli 14084, MDR clinical isolate",0.5 µg/mL
same,MIC,[11],>16 µg/mL
same,MIC,"A. baumannii GMCH05; A. baumannii GMCH05, MDR clinical isolate",1 µg/mL
same,MIC,"P. aeruginosa PA1; P. aeruginosa PA1, MDR clinical isolate",2 µg/mL
same,MIC,[12],16 µg/mL
same,MIC,"P. aeruginosa PA6; P. aeruginosa PA6, MDR clinical isolate",2 µg/mL
same,MIC,"E. coli 14504; E. coli 14504, MDR clinical isolate",1 µg/mL
same,MIC,[13],0.5 µg/mL
same,MIC,[14],0.5 µg/mL
same,MIC,"K. Pneumoniae 1573; K. Pneumoniae 1573, MDR clinical isolate",1 µg/mL
same,MIC,[15],0.5 µg/mL
same,MIC,"A. baumannii AB2; A. baumannii AB2, MDR clinical isolate",1 µg/mL
same,Kd,[16],7.04 µM
same,MIC,"E. coli 7210; E. coli 7210, MDR clinical isolate",1 µg/mL
